The subject of series [1] is NIH3T3 cells. As to the kind of experiment: MTT viability assay, non-cancerous NIH3T3 cells. Format: cell-based. As for the experimental part: (§1) The anticancer activities of the exemplary compounds listed in Example 1 were tested against human cervix Hela cells, mammary breast cancer MDA-MB-231 cells, human hepatocellular HepG2 cells, human colorectal HCT116 cells, mammary ductal T47D cells, non-cancerous NIH3T3 cells, dog's kidney MDCK cells, and mouse brain bEnd.3 cells, respectively.

Series [2] deals with HeyA8 cells. As to the kind of experiment: CellTiter-Glo viability, adherent HeyA8 ovarian cancer cells. The class given is cell-based. To be noted: high concentration.
The subject of series [3] is MDA-MB-231 cells. Put plainly: MTT viability assay, MDA-MB-231 cells. The class given is cell-based. As to conditions: for selectivity index (IC50 of NIH3T3 divided by IC50 on MDA-MB-231): Table 12b, value in bracket. As for the experimental part: as §1
In general terms: Tetrazolium assays rely on reduction of a dye to a coloured formazan, in cell work by metabolically active cells.

The test system of series [4] is HEYA8 CSCs. As to the kind of experiment: CellTiter-Glo viability, HeyA8 cancer stem cells (spheres). The class given is cell-based. As to conditions: 5 μM of erastin, 50 μM of artesunate; RSL3 single dose. Background: Cellular ATP, detected with luciferase, serves as a proxy for viable cell number.
The subject of series [5] is bEnd.3 cells. Put plainly: MTT viability assay, bEnd.3 cells. As to conditions: mean, n = 3, read-out: IC50 against bEnd.3 cells. The class given is cell-based, mouse. As for the experimental part: as §1
For series [6], the system named is T47D cells. As to the kind of experiment: MTT viability assay, T47D cells. The class given is cell-based. As to conditions: for selectivity index (IC50 of NIH3T3 divided by IC50 on T47D): value in bracket. As for the experimental part: as §1
Series [7] has as its system Hela cells. Put plainly: MTT viability assay, Hela cells. The class given is cell-based, human. To be noted: 48 h incubation, mean, n = 3, read-out: IC50 against Hela cells. As for the experimental part: as §1
The test system of series [8] is HEK293 cells. Put plainly: MTT viability assay, HEK293 cells. Format: cell-based. As to conditions: mean, n = 3, read-out: IC50 against HEK293 cells.
Series [9] has as its system MDCK cells. As to the kind of experiment: MTT viability assay, MDCK cells. Format: cell-based, dog. As to conditions: 48 h incubation, mean, n = 3, read-out: IC50 against MDCK cells. As for the experimental part: as §1
The subject of series [10] is HCT116 cells. Put plainly: MTT viability assay, HCT116 cells. The class given is cell-based, human. To be noted: MTT, 48 h incubation, mean, n = 3, read-out: IC50 against HCT116 cells. As for the experimental part: as §1
In series [11] the test system is HepG2 cells. As to the kind of experiment: MTT viability assay, HepG2 cells. The class given is cell-based, human. To be noted: MTT, 48 h incubation, mean, n = 3, read-out: IC50 against HepG2 cells. As for the experimental part:
as §1

Series [12] deals with MDA-MB-231 xenograft tumors. As to the kind of experiment: Mouse xenograft breast tumors (MDA-MB-231). Format: in vivo, Nude mice. As to conditions: mouse, in vivo. As for the experimental part:
FIG. 12A is a graph showing the tumor volume of xenograft tumors versus time after s.c. injection of DMSO, PTX, compound 37b, or compound 48. Nude mice were injected s.c. with MDA-MB-231 cells (10^6) and randomly allocated to one of the six treatment groups (n=5): (i) DMSO, (ii) Paclitaxel (PTX), 5 mg/kg, (iii) compound 37b, 5 mg/kg, (iv) compound 37b, 10 mg/kg, (v) compound 48, 5 mg/kg, or (vi) compound 48, 10 mg/kg. When control animals (DMSO) began to appear tumor ulceration (25 days), all animals in the experiment were sacrificed and photographed.
FIG. 12B are photographs of the tumor from sacrificed animals of different treatment groups after 25 days. FIG. 12C is a graph showing the tumor weight of xenograft tumors versus time after s.c. injection of DMSO, PTX, compound 37b, or compound 48. Data are shown as mean±SEM. * P≤0.05 versus DMSO group. FIG. 12D are photographs showing the morphological observation of mice tissue treated with DMSO, paclitaxel, compound 37b, or compound 48 with H&E staining on heart, liver, kidney, lungs, and spleen tissues (200×).

Setting [13] is: Mus musculus, NIH3T3, MTT, 48 h incubation, mean, n = 3, read-out: IC50 against NIH3T3 cells.
Where [14] appears, read: Homo sapiens, MDA-MB-231, 48 h, MTT, 48 h incubation, mean, n = 3, read-out: IC50 against MDA-MB-231 cells.
The mark [15] stands for this setting: MTT, 48 h incubation, mean, n = 3, read-out: IC50 against T47D cells.
Where [16] appears, read: MTT, 48 h incubation, mean, n = 3, read-out: IC50 against MDA-MB-231 cells.
The mark [17] stands for this setting: Homo sapiens, HEK293, 48 h incubation.
[18] abbreviates: MTT, 48 h incubation, mean, n = 3, read-out: IC50 against NIH3T3 cells.
The mark [19] stands for this setting: Mus musculus, BEND3, 48 h incubation.
[20] abbreviates: Homo sapiens, T47D, MTT, 48 h incubation, mean, n = 3, read-out: IC50 against T47D cells.
Setting [21] is: Homo sapiens, T47D, Table 12b, read-out: IC50 T47D.
[22] abbreviates: Mus musculus, NIH3T3, Table 12b, read-out: IC50 NIH3T3.
Where [23] appears, read: Homo sapiens, MDA-MB-231, Table 12b, read-out: IC50 MDA-MB-231.

The structures appear in SMILES notation. “Also recorded” adds a separate entry of the source. Read-outs that look alike come from different tables or passages of the source.

For `C[C@H]1[C@H](OC(=O)CCC(=O)O)O[C@@H]2O[C@@]3(C)CC[C@H]4[C@H](C)CC[C@@H]1[C@@]24OO3` [Artesunate, reference compound], the concentration for half-maximal inhibition (IC50) – broadly, the point on the concentration scale where inhibition reaches its midpoint – in series [1] (setting [13]) turned out to be 17.4 µM; in series [3] (setting [14]) it was 20.3 µM. Also, the “cell death of adherent HEYA8 cells” value in [2] is given as approximately 50%. The “cytotoxic effect on HEYA8 CSCs at single dose” value in [4] is given as “did not show any cytotoxic effect; also recorded: almost insensitive”.

For `O=C(CC1CCC2(CC1)OOC1(OO2)C2CC3CC(C2)CC1C3)NCCC[P+](c1ccccc1)(c1ccccc1)c1ccccc1` (stereo not drawn) [Compound 6b, (3-(2-((1r,3r,5r,7r)-dispiro[adamantane-2,3′-[1,2,4,5]tetraoxane-6′,1″-cyclohexan]-4″-yl)acetamido)propyl)triphenylphosphonium bromide], the IC50 was 12.3 µM in series [5] (48 h incubation); 4.4 µM in series [6] (setting [15]); 2.2 µM in [7]; 1.6 µM in series [8] (48 h incubation); 2.6 µM in series [3] (setting [16]); 18.1 µM in [9].

As to `CN(C)CCCNC(=O)OC1CCC2(CC1)OOC1(OO2)C2CC3CC(C2)CC1C3` (stereo not drawn) [Compound 30a, (1r,3r,5r,7r)-dispiro[adamantane-2,3′-[1,2,4,5]tetraoxane-6′,1″-cyclohexan]-4″-yl(3-(dimethylamino)propyl)carbamate], the half-inhibitory concentration (IC50) was 2.5 µM in [8] (setting [17]); 14.4 µM in series [3] (setting [14]); 42.8 µM in series [9] (Canis lupus familiaris, MDCK).

As for `O=C(NCCC[P+](c1ccccc1)(c1ccccc1)c1ccccc1)OC1CCC2(CC1)OOC1(OO2)C2CC3CC(C2)CC1C3` (stereo not drawn) [Compound 30b, (3-(((((1r,3r,5r,7r)-dispiro[adamantane-2,3′-[1,2,4,5]tetraoxane-6′,1″-cyclohexan]-4″-yl)oxy)carbonyl)amino)propyl)triphenylphosphonium bromide], the IC50 in series [10] was 1.4 µM; in [11], 1.2 µM; in series [1] (setting [18]), 5.8 µM; in series [7], 2.4 µM; in [8] (48 h incubation) it was 1 µM; in [3] (setting [16]), 0.53 µM. Moreover, the IC50 in [9] amounted to 5.8 µM.

For `CC(C)(C)C1CCC2(CC1)OOC1(CCC(O)CC1)OO2` (stereo not drawn) [Compound 37, 12-(tert-butyl)-7,8,15,16-tetraoxadispiro[5.2.59.26]hexadecan-3-ol], the IC50 in [10] (Homo sapiens, HCT-116) was 14.4 µM; in [5] (setting [19]), more than 100 µM; in series [6] (setting [20]), 6.1 µM; in series [11] (Homo sapiens, HepG2), 4.8 µM; in series [1] (setting [13]), 7.1 µM; in [7] (Homo sapiens, HeLa), 15.1 µM. For the same compound, the IC50 in series [8] (setting [17]) was 5.8 µM; in [3] (setting [14]), 7.4 µM; in series [9] (Canis lupus familiaris, MDCK), more than 50 µM.

In the case of `CN(C)CCCNC(=O)OC1CCC2(CC1)OOC1(CCC(C(C)(C)C)CC1)OO2` (stereo not drawn) [Compound 37a, 12-(tert-butyl)-7,8,15,16-tetraoxadispiro[5.2.59.26]hexadecan-3-yl(3-(dimethylamino)propyl)carbamate], the IC50 in series [10] (Homo sapiens, HCT-116) worked out at 4.6 µM; in [5] (setting [19]), 10.9 µM; in series [6] (setting [20]), 2.2 µM; in [11] (Homo sapiens, HepG2) it was 2 µM; in [1] (setting [13]) it was 1.7 µM; in [7] (Homo sapiens, HeLa) it was 3.9 µM. The IC50 in series [8] (setting [17]) worked out at 0.8 µM; in series [3] (setting [14]), 2 µM; in series [9] (Canis lupus familiaris, MDCK) it was 23.7 µM.

For the compound `CC(C)(C)C1CCC2(CC1)OOC1(CCC(OC(=O)Oc3ccc([N+](=O)[O-])cc3)CC1)OO2` (stereo not drawn) [Compound 37c, 12-(tert-butyl)-7,8,15,16-tetraoxadispiro[5.2.59.26]hexadecan-3-yl(4-nitrophenyl) carbonate], the “abnormal behavior or weight loss during treatment period” value in series [12] was “no abnormal behavior or weight loss”.

For `CC(C)(C)C1CCC2(CC1)OOC1(CCC(OC(=O)N3CCNCC3)CC1)OO2` (stereo not drawn) [Compound 37f, 12-(tert-butyl)-7,8,15,16-tetraoxadispiro[5.2.59.26]hexadecan-3-yl piperazine-1-carboxylate], the IC50 in series [6] (setting [20]) is 1.3 µM; in [6] (setting [21]), 1.3 ± 0.6 µM; in [1] (setting [13]) it was 11.6 µM; in [1] (setting [22]), 11.6 ± 2.4 µM; in [7] (Homo sapiens, HeLa), 3.1 µM; in series [3] (setting [14]), less than 4 µM. The IC50 stood at 2.9 ± 0.8 µM in series [3] (setting [23]) and 12.4 µM in series [9] (Canis lupus familiaris, MDCK). In addition, the “selectivity index (IC50 of NIH3T3 divided by IC50 on T47D)” value in series [6] (Table 12b) is given as “(>8.9)”. Moreover, in series [3], the “selectivity index (IC50 of NIH3T3 divided by IC50 on MDA-MB-231)” value is given as “(>4)”.

For `CC1=CC(=O)C(C(C)(C)CC(=O)N2CCN(C(=O)OC3CCC4(CC3)OOC3(CCC(C(C)(C)C)CC3)OO4)CC2)=C(C)C1=O` (stereo not drawn) [Compound 37g, 12-(tert-butyl)-7,8,15,16-tetraoxadispiro[5.2.59.26]hexadecan-3-yl 4-(3-(2,4-dimethyl-3,6-dioxocyclohexa-1,4-dien-1-yl)-3-methylbutanoyl)piperazine-1-carboxylate], the IC50 in series [6] (setting [20]) amounted to 3.1 µM; in series [6] (setting [21]), 3.1 ± 0.7 µM; in [1] (setting [13]) it was 26.6 µM; in series [1] (setting [22]), 26.6 ± 2.6 µM; in [7] (Homo sapiens, HeLa) it was 11.5 µM; in [3] (setting [14]) it was 11 µM. The 50% inhibitory concentration (IC50) was 11 ± 0.9 µM in series [3] (setting [23]) and 22.3 µM in [9] (Canis lupus familiaris, MDCK). In addition, the “selectivity index (IC50 of NIH3T3 divided by IC50 on T47D)” value in series [6] (Table 12b) was “(>8.5)”. In addition, in [3], the “selectivity index (IC50 of NIH3T3 divided by IC50 on MDA-MB-231)” value is “(>2.4)”.

`CC(C)(C)C1CCC2(CC1)OOC1(CCC(OC(=O)NCCCCO[C@@H]3O[C@H](CO)[C@@H](O)[C@H](O)[C@H]3O)CC1)OO2` (stereo partly drawn) [Compound 37i, 12-(tert-butyl)-7,8,15,16-tetraoxadispiro[5.2.59.26]hexadecan-3-yl(4-(((2R,3R,4S,5S,6R)-3,4,5-trihydroxy-6-(hydroxymethyl)tetrahydro-2H-pyran-2-yl)oxy)butyl)carbamate]: the half-inhibitory concentration (IC50) was 13.2 µM in [6] (setting [15]); more than 100 µM in [1] (setting [18]); 28.5 µM in series [7]; 24.3 µM in [3] (setting [16]); more than 50 µM in series [9].

With `CC(C)(C)C1CCC2(CC1)OOC1(CCC(OC(=O)NCCOCCOCCNC(=O)OC3CCC4(CC3)OOC3(CCC(C(C)(C)C)CC3)OO4)CC1)OO2` (stereo not drawn) [Compound 37j, bis(12-(tert-butyl)-7,8,15,16-tetraoxadispiro[5.2.59.26]hexadecan-3-yl) ((ethane-1,2-diylbis(oxy))bis(ethane-2,1-diyl))dicarbamate], the IC50 in series [6] (setting [20]) is 10.6 µM; in series [1] (setting [13]) it was more than 100 µM; in series [7] (Homo sapiens, HeLa) it was 30.6 µM; in [3] (setting [14]), 23.9 µM; in series [9] (Canis lupus familiaris, MDCK), more than 100 µM.

On to `CCOc1ccccc1-n1c(C(C)N2CCN(C(=O)COc3ccc(Cl)cc3)CC2)nc2ccccc2c1=O` (stereo not drawn) [Erastin, reference compound], for which the IC50 in series [1] (setting [13]) was 0.29 µM; in series [3] (setting [14]) it was 1.3 µM. For the same compound, in series [4], the “cytotoxic effect on HEYA8 CSCs at single dose” value is “did not show any cytotoxic effect; also recorded: almost insensitive”.

These data come from patent publication US20240101584A1, “TARGETED DELIVERY OF 1,2,4,5 TETRAOXANE COMPOUNDS AND THEIR USES” (Westlake University, priority 2021, published 2024).
